From patent publication US11198713B2, “Agents modulating beta-catenin functions and methods thereof” (FOG PHARMACEUTICALS, INC., priority 2017, dated 2021)
Converted amounts (≈) assume the structure as drawn. Where two headings read alike, the source gives them in different places. Numbered stars: 1 amine (or outer) side, 2 acyl side, 3 side chain; on linkers, the order of the positions; unused ones are H or OH. Bridge positions count the residues as written; N and C are the ends. Square brackets hold non-standard residues; d marks the D form. Primed or numbered codes have the meaning given here. Ends that are not written are not given here. Peptide text beside a SMILES is read from it. MB = Monomer B = PyrS, Alloc-pyrrolidine stapling residue (allyl carbamate on pyrrolidine N); dαMeDab(Me) = CN(CC[C@@](C)(N[*:1])C(=O)[*:2])[*:3]; X1 = O=C([C@]1(N[*:1])CCN([*:3])C1)[*:2]; X2 = O=C(OCC=CCOC(=O)[*:2])[*:1]; R8 = C=CCCCCCC[C@@](C)(N)C(=O)O; S5 = C=CCCC[C@](C)(N)C(=O)O; PEG1′ = not defined here

What was measured:
[1] = biological target: T1, biotinylated beta-catenin (Homo sapiens, UniProt P35222); experiment: Surface Plasmon Resonance (Biacore); type: binding
T1 sequence (P35222 1-781): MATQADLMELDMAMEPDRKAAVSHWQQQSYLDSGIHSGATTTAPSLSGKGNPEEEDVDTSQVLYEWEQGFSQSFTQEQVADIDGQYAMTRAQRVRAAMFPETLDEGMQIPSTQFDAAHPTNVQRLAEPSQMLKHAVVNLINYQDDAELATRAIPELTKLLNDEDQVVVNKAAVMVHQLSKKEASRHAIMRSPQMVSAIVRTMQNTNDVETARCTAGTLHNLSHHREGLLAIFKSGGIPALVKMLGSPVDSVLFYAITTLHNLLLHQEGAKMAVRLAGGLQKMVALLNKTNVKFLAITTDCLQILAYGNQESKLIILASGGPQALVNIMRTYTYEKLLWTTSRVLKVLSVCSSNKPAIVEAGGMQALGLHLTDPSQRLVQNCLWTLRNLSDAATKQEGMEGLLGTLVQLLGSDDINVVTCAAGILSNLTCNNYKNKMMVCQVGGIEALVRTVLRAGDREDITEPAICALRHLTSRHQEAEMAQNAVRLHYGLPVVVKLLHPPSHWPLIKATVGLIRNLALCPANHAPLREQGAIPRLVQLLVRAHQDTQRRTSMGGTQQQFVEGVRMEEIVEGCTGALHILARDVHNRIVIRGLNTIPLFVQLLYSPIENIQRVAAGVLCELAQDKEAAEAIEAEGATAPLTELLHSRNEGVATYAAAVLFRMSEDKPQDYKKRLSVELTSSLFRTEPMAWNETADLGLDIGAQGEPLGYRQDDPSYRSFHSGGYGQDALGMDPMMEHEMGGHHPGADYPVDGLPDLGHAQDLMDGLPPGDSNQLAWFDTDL

[2] = Solubility in DPBS (A280 of supernatant); type: physicochemical; details: DPBS
Procedure, shortened: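 Dried peptide reconstituted in DPBS in triplicate, vortexed, sonicated and centrifuged. Supernatant A280 measured; concentration calculated using the tryptophan extinction coefficient.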

[3] = biological target: T2, full-length beta-catenin (Axin site) (Homo sapiens, UniProt P35222); experiment: Competition fluorescence polarization assay (Axin site probe); type: binding; details: competition fluorescence polarization, Table 2; read-out: in vitro FP EC50
T2 construct: 15 nM full-length beta-catenin, 20 nM FITC labeled peptide in buffer
T2 sequence (P35222 1-781): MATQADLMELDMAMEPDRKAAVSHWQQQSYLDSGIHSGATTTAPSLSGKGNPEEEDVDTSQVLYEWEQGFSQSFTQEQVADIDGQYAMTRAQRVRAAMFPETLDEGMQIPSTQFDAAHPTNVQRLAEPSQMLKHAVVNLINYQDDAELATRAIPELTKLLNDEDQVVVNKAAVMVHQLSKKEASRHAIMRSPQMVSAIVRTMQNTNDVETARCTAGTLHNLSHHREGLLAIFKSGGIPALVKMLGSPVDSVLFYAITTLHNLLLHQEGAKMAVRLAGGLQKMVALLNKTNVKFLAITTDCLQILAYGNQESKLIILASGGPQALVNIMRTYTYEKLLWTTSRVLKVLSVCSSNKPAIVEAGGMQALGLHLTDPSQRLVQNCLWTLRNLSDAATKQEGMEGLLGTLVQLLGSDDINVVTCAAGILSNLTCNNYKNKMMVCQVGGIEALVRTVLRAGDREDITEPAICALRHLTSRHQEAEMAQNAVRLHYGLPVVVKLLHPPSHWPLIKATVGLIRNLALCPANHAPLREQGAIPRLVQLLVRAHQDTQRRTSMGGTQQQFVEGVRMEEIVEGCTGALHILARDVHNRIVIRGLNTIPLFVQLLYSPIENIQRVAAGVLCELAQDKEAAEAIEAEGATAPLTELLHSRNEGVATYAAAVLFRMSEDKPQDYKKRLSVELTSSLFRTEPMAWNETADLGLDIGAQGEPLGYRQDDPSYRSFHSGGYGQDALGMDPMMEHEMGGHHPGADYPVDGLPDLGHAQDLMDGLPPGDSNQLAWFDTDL
Procedure, shortened: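 Competition FP: 15 nM full-length β-catenin pre-incubated 5 min with 20 nM FITC-labelled stapled Axin-site peptide, then titrated peptide added (3-fold series from 5 μM) for 15 min in the dark. Buffer 50 mM Tris pH 8.0, 250 mM NaCl, 2% glycerol, 0.5 mM EDTA; duplicate reads.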

Plasma PK in rats = type: in vivo; details: IV 0.5 mg/kg, male Sprague-Dawley rats
Experimental: (§1) FIG. 6. Exemplary pharmacokinetic properties. Peptides were formulated in 10% DMSO:90% saline and dosed by IV at 0.5 mg/kg per compound in three male Sprague-Dawley rats. Serial bleed time-points were taken at 2 min, 6 min, 10 min, 15 min, 30 min, 1, 2, 4, 6, 8, 12 and 24 h and analyzed by quantitative LC/MS using a Thermo Q-Exactive Focus LC/MS/MS. Samples were prepared by protein precipitation with MeOH. Data were fit to a two-compartment model.
as §1, with “Various technologies can be utilized to assess properties of provided agents, e.g., stapled peptides, in accordance with the present disclosure. In some embodiments, plasma PK methods are used to assess” for “FIG. 6. Exemplary”, “In an exemplary assay, peptides” for “Peptides”, “model. […] Exemplary data are presented, e.g., in FIG. 6.” for “model.”

beta-catenin = biological target: T3, beta-catenin (Homo sapiens, UniProt P35222); details: reported in Grossmann et al.; cited from earlier work
T3 sequence (P35222 1-781): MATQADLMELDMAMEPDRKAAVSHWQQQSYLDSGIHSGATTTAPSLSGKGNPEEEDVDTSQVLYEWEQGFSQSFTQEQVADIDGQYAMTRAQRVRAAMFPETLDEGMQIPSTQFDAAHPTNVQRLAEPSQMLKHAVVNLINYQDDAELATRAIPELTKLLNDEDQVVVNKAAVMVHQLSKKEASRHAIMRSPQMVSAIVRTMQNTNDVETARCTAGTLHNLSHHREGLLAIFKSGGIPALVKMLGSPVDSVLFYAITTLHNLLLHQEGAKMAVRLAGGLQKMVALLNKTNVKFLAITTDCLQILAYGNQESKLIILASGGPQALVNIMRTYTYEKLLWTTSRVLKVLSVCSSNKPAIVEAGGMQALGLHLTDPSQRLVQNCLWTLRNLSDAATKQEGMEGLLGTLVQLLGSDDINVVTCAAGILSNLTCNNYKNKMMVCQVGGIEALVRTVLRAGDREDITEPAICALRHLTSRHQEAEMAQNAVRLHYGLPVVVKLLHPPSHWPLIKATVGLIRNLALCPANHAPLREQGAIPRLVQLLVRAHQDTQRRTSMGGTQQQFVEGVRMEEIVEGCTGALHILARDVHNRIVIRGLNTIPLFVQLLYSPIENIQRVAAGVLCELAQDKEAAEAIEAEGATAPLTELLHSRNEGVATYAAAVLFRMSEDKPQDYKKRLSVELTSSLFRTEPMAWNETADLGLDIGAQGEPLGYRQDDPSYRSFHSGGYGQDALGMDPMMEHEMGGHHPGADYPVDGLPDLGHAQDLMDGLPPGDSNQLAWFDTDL

full-length beta-catenin [4] = biological target: T4, full-length beta-catenin (UniProt P35222 2-781, limits assumed); experiment: competition FP, grade of FP EC50 (++: 100-500 nM)
T4 construct: mature; also called full-length ß-Catenin; β-catenin
T4 sequence (looked up): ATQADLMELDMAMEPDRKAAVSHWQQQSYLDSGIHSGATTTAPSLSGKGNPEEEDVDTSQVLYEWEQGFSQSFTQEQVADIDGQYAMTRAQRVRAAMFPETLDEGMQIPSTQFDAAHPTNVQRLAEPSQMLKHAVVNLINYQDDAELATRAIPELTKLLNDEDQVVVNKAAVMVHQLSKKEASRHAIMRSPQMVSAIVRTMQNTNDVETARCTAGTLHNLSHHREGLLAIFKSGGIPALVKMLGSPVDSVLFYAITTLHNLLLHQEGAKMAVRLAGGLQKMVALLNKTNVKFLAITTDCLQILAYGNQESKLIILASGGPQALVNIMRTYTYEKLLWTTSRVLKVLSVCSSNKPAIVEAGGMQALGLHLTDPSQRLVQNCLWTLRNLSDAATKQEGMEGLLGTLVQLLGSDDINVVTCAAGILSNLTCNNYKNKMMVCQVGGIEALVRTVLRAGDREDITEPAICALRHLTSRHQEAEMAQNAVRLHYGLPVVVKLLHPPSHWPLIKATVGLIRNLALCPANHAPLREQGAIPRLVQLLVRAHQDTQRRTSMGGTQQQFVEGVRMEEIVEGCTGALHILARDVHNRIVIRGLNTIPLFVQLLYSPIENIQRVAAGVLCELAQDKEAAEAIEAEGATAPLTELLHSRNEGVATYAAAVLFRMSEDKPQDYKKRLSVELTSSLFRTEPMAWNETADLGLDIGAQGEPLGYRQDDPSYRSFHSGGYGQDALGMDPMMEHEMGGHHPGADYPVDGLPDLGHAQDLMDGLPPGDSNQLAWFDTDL
Procedure, shortened: (§2)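 Compound 3-fold serially diluted from 5 µM in Tris pH 8.0, 250 mM NaCl buffer, added to premixed 15 nM full-length β-catenin and 20 nM FITC-labelled stapled axin-site peptide probe. Incubated 15 min in the dark, polarization read in duplicate.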

full-length beta-catenin [5] = biological target: T4, full-length beta-catenin; experiment: competition FP; control of Table 5
full-length beta-catenin [6] = biological target: T4, full-length beta-catenin; experiment: competition FP, displacement of a labeled probe from the axin site
Experimental: In some embodiments, a competition fluorescence polarization assay is used to assess binding of provided compounds to beta-catenin. In an exemplary procedure, solutions of provided compounds, e.g., provided stapled peptides, were prepared in a buffer (e.g., 50 mM Tris pH 8.0, 250 mM NaCl, 2% glycerol, 0.5 mM EDTA, 0.02% w/v sodium azide) using a 3-fold serial dilution from 5 µM. Probe solution (15 nM full-length ß-Catenin, 20 nM FITC labeled peptide in buffer) was prepared and incubated for a period of time, e.g., 5 minutes, and the a volume, e.g., 40 µL per well plated in suitable plate, e.g., a black polystyrene 384-well plate (Corning). Equal volume of the serial diluted peptide was added to the plate and incubated protected from light for 15 minutes prior to read. Reads were performed on a Spectramax M5 (Molecular Devices) in duplicate. Suitable probe was FITC-PEG1-PQ-S5-ILD-S5-HVRRVWR (SEQ ID NO: 1) (hydrocarbon staple formed by two S5 via olefin metathesis) and/or FITC-bA-PQ-S5-ILD-S5-HVRRVWR (SEQ ID NO: 3) (hydrocarbon staple formed by two S5 via olefin metathesis). […] Another peptide, FPO217c (Ac-AR_8ILDAHIM$B5$RVW (SEQ ID NO: 280), with N-terminal proline removed and valine replaced with isoleucine compared to FP0025c) was prepared.

full-length beta-catenin [7] = biological target: T4, full-length beta-catenin; experiment: competition FP, grade of FP EC50 (+++: <=100 nM)
Procedure, shortened: as §2

Molecule: CC[C@H](C)[C@@H]1NC(=O)[C@H](Cc2c[nH]cn2)NC(=O)[C@H](C)NC(=O)[C@H](CC(=O)O)NC(=O)[C@H](CC(C)C)NC(=O)[C@H]([C@@H](C)CC)NC(=O)[C@](C)(NC(=O)[C@H](C)NC(C)=O)CCN(C)C(=O)OCC=CCOC(=O)N2CC[C@@](C(=O)N[C@@H](CCCNC(=N)N)C(=O)N[C@H](C(=O)N[C@@H](Cc3c[nH]c4ccccc34)C(N)=O)C(C)C)(C2)NC1=O [FP0597c, Ac-A-MG-I-L-D-A-H-I-MB-R-V-W-NH2] (Ac-A[dαMeDab(Me)]ILDAHI[X1]RVW-NH2; linker 2-9 via X2)
- Kd ([1]; Biacore, biotinylated beta-catenin, read-out: Kd): 7 nM
- Kd ([1]; Table 2, read-out: Kd by SPR): 4 nM
- Kd ([1]; Table 3 Part A, read-out: Binding Kd): 4 nM
- solubility ([2]; Table 2, read-out: Solubility): 98 µM (≈ 158 µg/mL)
- solubility thermodynamic ([2]; Table 3 Part A, read-out: Solubility in DPBS): 98 µM (≈ 158 µg/mL)
- solubility ([2]; read-out: solubility): 98 µM (≈ 158 µg/mL)
- EC50 [3]: < 100 nM
- plasma half-life compared with FP0217c (Isomer 2) (Plasma PK in rats): shorter

Molecule: Ac-PEG1-RRWPRS5ILDS5HVRRVWR (SEQ ID NO: 278) ({Ac-PEG1′}-RRWPR[S5]ILD[S5]HVRRVWR; staple 6-10) [StAx-35R, "3 amino acids were added to the N-terminus of the peptide and one other Q→R mutation was made ... the resulting peptide StAx-35R"]
- affinity compared to StAx-33 (beta-catenin): reduced

B1: FP0787s (peptide)
peptide: Ac-PQ[S5]ILD[S5]HVRRVWR-NH2
modifications: staple 3-7
SMILES: CC[C@H](C)[C@@H]1NC(=O)[C@@](C)(NC(=O)[C@H](CCC(N)=O)NC(=O)[C@@H]2CCCN2C(C)=O)CCCC=CCCC[C@@](C)(C(=O)N[C@@H](Cc2c[nH]cn2)C(=O)N[C@H](C(=O)N[C@@H](CCCNC(=N)N)C(=O)N[C@@H](CCCNC(=N)N)C(=O)N[C@H](C(=O)N[C@@H](Cc2c[nH]c3ccccc23)C(=O)N[C@@H](CCCNC(=N)N)C(N)=O)C(C)C)C(C)C)NC(=O)[C@H](CC(=O)O)NC(=O)[C@H](CC(C)C)NC1=O
notes: also called S5/S5
- FP EC50 (full-length beta-catenin [4]): 100 to 500 nM
- EC50 (full-length beta-catenin [5]): ~100 nM

Molecule: Ac-PA[R8]ILDAHV[MB]RVW-NH2 (staple 3-10) [FP0025c]
- EC50 (full-length beta-catenin [6]): < 100 nM
- FP EC50 (full-length beta-catenin [7]): ≤ 100 nM
